Results as given in patent US9193728B2, “Fused tetracyclic pyrido [4,3-B] indole and pyrido [3,4-B] indole derivatives and methods of use” (Medivation Technologies, Inc., priority 2010, dated 2015).

What was measured:
[1] = biological target: T1, human recombinant histamine H1 receptor (Homo sapiens, UniProt P35367); assay: Histamine H1 radioligand binding ([3H]Pyrilamine); conditions: 1.2 nM [3H]Pyrilamine; for inhibition at 0.1 µM / Histamine Binding (0.1 μM) H1, percentage inhibition: compound at 0.1 μM; for inhibition at 0.1 µM: read-out: Histamine Binding (0.1 μM) H1, percentage inhibition
T1 construct: expressed in transfected cells; host or cells: CHO-K1
Description: To evaluate in radioligand binding assays the activity of compounds of the invention, human recombinant histamine H1 receptor expressed in Chinese hamster ovary (CHO) K1 cells (De Backer, M. et al, Biochem. Biophys. Res. Comm. 197(3):1601, 1993) in a modified Tris-HCl buffer (50 mM Tris-HCl, pH 7.4, 2 mM MgCl2, 100 mM NaCl, 250 mM Sucrose) was used. Compounds of the invention were incubated with 1.2 nM [^3H]Pyrilamine for 180 min. at 25° C. Non-specific binding was estimated in the presence of 1 μM Pyrilamine. Receptor proteins were filtered and washed, the filters were then counted to determine [^3H]Pyrilamine specifically bound. Compounds were screened at 1 μM or lower, using 1% DMSO as vehicle. Biochemical assay results are presented as the percent inhibition of specific binding in Table 2.

[2] = biological target: T2, human recombinant dopamine D2L receptor (Homo sapiens, UniProt P14416); assay: Dopamine D2L radioligand binding ([3H]Spiperone); conditions: compound at 1 μM; for inhibition at 1 µM: read-out: Dopamine (1 μM) D2L, percentage inhibition of ligand binding
T2 construct: expressed in transfected cells; host or cells: CHO
Description: To evaluate in radioligand binding assays the activity of compounds of the invention, human recombinant dopamine D2L receptor expressed in Chinese hamster ovary (CHO) cells (Grandy, D. et al, Proc. Natl. Acad. Sci. USA. 86:9762, 1989; Hayes, G. et al, Mol. Endocrinol. 6:920, 1992) in a modified Tris-HCl buffer (50 mM Tris-HCl, pH 7.4, 1.4 mM Ascorbic Acid, 0.001% BSA, 150 mM NaCl) was used. Compounds of the invention were incubated with 0.16 nM [^3H]Spiperone for 120 min. at 25° C. Non-specific binding was estimated in the presence of 10 μM Haloperidol. Receptor proteins were filtered and washed, the filters were then counted to determine [^3H]Spiperone specifically bound. Compounds were screened at 1 μM or lower, using 1% DMSO as vehicle. Biochemical assay results are presented as the percent inhibition of specific binding in Table 3.

[3] = biological target: T3, human recombinant serotonin (5-Hydroxytryptamine) 5-HT2C receptor (Homo sapiens, UniProt P28335); assay: Serotonin 5-HT2C radioligand binding ([3H]Mesulergine); conditions: for inhibition at 0.1 µM / Serotonin (0.1 μM) 5-HT2C, percentage inhibition of ligand binding: compound at 0.1 μM; for inhibition at 0.1 µM: read-out: Serotonin (0.1 μM) 5-HT2C, percentage inhibition of ligand binding
T3 construct: expressed in transfected cells; host or cells: CHO-K1
T3 sequence (P28335 33-458): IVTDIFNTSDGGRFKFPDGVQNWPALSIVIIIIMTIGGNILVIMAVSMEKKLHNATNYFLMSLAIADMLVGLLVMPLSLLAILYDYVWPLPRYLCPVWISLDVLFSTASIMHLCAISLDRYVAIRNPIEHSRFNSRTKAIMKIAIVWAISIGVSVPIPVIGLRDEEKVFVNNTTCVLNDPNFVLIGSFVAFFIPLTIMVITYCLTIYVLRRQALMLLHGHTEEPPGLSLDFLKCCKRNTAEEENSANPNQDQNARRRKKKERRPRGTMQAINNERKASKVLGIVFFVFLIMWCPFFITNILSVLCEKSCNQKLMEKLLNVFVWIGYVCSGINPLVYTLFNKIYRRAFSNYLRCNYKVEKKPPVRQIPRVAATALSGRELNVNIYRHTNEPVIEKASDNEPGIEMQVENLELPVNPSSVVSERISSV
Description: To evaluate in radioligand binding assays the activity of compounds of the invention, human recombinant serotonin (5-Hydroxytryptamine) 5-HT2C receptor expressed in Chinese hamster ovary (CHO)-K1 cells (Wolf, W. et al, J. Neurochem. 69:1449, 1997) in a modified Tris-HCl buffer (50 mM Tris-HCl, pH 7.4, 0.1% Ascorbic Acid, 10 μM Pargyline) was used. Compounds of the invention were incubated with 1 nM [^3H]Mesulergine for 60 min. at 25° C. Non-specific binding was estimated in the presence of 1 μM Mianserin. Receptor proteins were filtered and washed, the filters were then counted to determine [^3H]Mesulergine specifically bound. Compounds were screened at 1 μM or lower, using 1% DMSO as vehicle. Biochemical assay results are presented as the percent inhibition of specific binding in Table 4.

[4] = biological target: T4, human recombinant adrenergic α2C receptor (Homo sapiens, UniProt P18825); assay: Adrenergic α2C radioligand binding ([3H]MK-912); conditions: compound at 0.1 μM; for inhibition at 0.1 µM: read-out: Adrenergic (0.1 μM) a2C, percentage inhibition of ligand binding
T4 construct: expressed in transfected cells; host or cells: insect Sf9 cells
T4 sequence (P18825 1-462): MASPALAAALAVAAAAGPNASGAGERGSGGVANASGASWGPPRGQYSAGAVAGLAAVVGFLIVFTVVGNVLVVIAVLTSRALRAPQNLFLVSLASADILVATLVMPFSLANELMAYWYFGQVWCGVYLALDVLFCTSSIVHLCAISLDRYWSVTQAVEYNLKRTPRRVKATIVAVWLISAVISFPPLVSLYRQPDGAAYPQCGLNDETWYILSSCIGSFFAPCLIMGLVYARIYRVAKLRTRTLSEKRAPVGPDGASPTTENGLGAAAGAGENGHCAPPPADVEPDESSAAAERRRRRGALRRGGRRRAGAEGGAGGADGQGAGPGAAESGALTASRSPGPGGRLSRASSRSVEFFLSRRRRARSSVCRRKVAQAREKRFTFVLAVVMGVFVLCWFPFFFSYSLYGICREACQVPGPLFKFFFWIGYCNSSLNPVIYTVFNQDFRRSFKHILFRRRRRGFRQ
Description: To evaluate in radioligand binding assays the activity of compounds of the invention, human recombinant adrenergic α2C receptor expressed in insect Sf9 cells (Uhlen, S. et al, J. Pharmacol. Exp. Ther. 271:1558, 1994) in a modified Tris-HCl buffer (50 mM Tris-HCl, pH 7.4, 12.5 mM MgCl2, 2 mM EDTA) was used. Compounds of the invention were incubated with 1 nM [^3H]MK-912 for 60 min. at 25° C. Non-specific binding was estimated in the presence of 10 μM WB-4101. Receptor proteins were filtered and washed, the filters were then counted to determine [^3H]MK-912 specifically bound. Compounds were screened at 1 μM or lower, using 1% DMSO as vehicle. Biochemical assay results are presented as the percent inhibition of specific binding in Table 3.

[5] = biological target: T5, human recombinant serotonin (5-Hydroxytryptamine) 5-HT5A receptor (Homo sapiens, UniProt P47898); assay: Serotonin 5-HT5A radioligand binding ([3H]LSD); conditions: compound at 0.1 μM; for inhibition at 0.1 µM: read-out: Serotonin (0.1 μM) 5-HT5A, percentage inhibition of ligand binding
T5 construct: expressed in transfected cells; host or cells: CHO-K1
Description: To evaluate in radioligand binding assays the activity of compounds of the invention, human recombinant serotonin (5-Hydroxytryptamine) 5-HT5A receptor expressed in Chinese hamster ovary (CHO)-K1 cells (Rees, S. et al, FEBS Lett. 355:242, 1994) in a modified Tris-HCl buffer (50 mM Tris-HCl, pH 7.4, 10 mM MgCl2, 0.5 mM EDTA) was used. Compounds of the invention were incubated with 1.7 nM [^3H]Lysergic acid diethylamide (LSD) for 60 min. at 37° C. Non-specific binding was estimated in the presence of 100 μM Serotonin (5-HT). Receptor proteins were filtered and washed, the filters were counted to determine [^3H]LSD specifically bound. Compounds were screened at 1 μM or lower, using 1% DMSO as vehicle. Biochemical assay results are presented as the percent inhibition of specific binding in Table 4.

T5 sequence (P47898 whole entry): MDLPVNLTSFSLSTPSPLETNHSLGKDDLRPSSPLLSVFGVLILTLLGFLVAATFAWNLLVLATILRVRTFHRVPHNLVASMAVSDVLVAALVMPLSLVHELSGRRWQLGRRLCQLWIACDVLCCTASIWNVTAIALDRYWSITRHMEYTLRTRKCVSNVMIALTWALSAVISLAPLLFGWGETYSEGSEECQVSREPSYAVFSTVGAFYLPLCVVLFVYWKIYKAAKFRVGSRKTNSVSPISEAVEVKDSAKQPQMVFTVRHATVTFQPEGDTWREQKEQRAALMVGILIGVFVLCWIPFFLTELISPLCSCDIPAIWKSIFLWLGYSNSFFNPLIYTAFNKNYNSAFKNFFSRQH
T1 sequence (P35367 whole entry): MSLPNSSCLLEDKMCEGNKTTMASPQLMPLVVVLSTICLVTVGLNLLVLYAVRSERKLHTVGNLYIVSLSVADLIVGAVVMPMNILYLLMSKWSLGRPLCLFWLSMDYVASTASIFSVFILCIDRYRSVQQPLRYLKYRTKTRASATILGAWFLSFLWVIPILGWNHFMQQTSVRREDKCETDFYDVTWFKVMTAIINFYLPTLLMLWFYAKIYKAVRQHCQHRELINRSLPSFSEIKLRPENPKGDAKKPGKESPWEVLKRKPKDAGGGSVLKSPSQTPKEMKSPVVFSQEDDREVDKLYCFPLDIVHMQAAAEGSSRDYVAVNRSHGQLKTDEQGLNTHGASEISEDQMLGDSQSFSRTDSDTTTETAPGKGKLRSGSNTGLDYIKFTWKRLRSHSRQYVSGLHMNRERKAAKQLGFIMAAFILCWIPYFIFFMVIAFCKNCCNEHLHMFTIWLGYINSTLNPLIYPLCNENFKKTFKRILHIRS
T2 sequence (P14416 whole entry): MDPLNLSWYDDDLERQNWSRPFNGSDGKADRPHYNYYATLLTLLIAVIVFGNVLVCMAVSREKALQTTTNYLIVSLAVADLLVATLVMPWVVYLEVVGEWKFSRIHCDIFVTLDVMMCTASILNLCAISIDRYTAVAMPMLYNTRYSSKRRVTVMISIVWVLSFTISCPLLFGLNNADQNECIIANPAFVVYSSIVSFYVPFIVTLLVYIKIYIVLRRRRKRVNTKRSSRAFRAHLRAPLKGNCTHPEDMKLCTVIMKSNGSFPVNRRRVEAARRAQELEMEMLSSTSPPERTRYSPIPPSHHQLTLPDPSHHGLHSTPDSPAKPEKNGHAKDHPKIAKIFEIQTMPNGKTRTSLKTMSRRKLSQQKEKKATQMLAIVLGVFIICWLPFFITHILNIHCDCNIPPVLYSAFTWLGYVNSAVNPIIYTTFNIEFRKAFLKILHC

| Compound | inhibition at 0.1 µM [1] [%] | inhibition at 1 µM ([1]; compound at 1 μM, read-out: Histamine Binding (1 μM) H1, percentage inhibition) [%] | inhibition at 1 µM [2] [%] | inhibition at 0.1 µM [3] [%] | inhibition at 1 µM ([3]; compound at 1 μM, read-out: Serotonin (1 μM) 5-HT2C, percentage inhibition of ligand binding) [%] | inhibition at 0.1 µM [4] [%] | inhibition at 0.1 µM [5] [%] | Histamine Binding (0.1 μM) H1, percentage inhibition [1] [%] | Adrenergic (0.1 μM) a2C, percentage inhibition of ligand binding [4] [%] | Serotonin (0.1 μM) 5-HT5A, percentage inhibition of ligand binding [5] [%] | Dopamine (1 μM) D2L, percentage inhibition of ligand binding [2] [%] | Serotonin (0.1 μM) 5-HT2C, percentage inhibition of ligand binding [3] [%] |
| --- | --- | --- | --- | --- | --- | --- | --- | --- | --- | --- | --- | --- |
| Cc1cc2c3c(c1)c1c(n3CC(c3ccc(F)cc3)C2)CCN(C)C1 (centres unmarked) [Compound 3] | 49 | 83 | 96 | 54 | 95 | – | – | – | – | – | – | – |
| Cc1cc2c3c(c1)c1c(n3CC(C)(c3ccc(C)nc3)OC(C)C2)CCN(C)C1 (centres unmarked) [Compound 160] | 0 | – | 7 | 7 | – | 16 | 2 | – | – | – | – | – |
| Cc1cc2c3c(c1)c1c(n3CC(C)(c3ccc(C)nc3)OC2C)CCN(C)C1 (centres unmarked) [Compound 161] | – | – | – | – | – | – | – | 13 | 3 | 4 | 10 | −4 |
| Cc1cc2c3c(c1)c1c(n3C[C@@](C)(c3ccncc3)O[C@H]2C)CCN(C)C1 [Compound 162] | 25 | – | 11 | 6 | – | 13 | 16 | – | – | – | – | – |
| Cc1cc2c3c(c1)c1c(n3C[C@](C)(c3ccncc3)O[C@H]2C)CCN(C)C1 [Compound 163] | 11 | – | 15 | 5 | – | 12 | 10 | – | – | – | – | – |
| Cc1cc2c3c(c1)c1c(n3CC(C)(c3ccc(C)nc3)OC2C)CCN(C)C1 (centres unmarked) [Compound 164] | – | – | – | – | – | – | – | −5 | −4 | −22 | 3 | 2 |
| Cc1cc2c3c(c1)c1c(n3CC(C)(c3ccncc3)OC(C)C2)CCN(C)C1 (centres unmarked) [Compound 165] | 37 | – | 10 | 14 | – | 20 | 16 | – | – | – | – | – |
